Assay results published in PMC6178348, “Intranasal delivery of a Fas-blocking peptide attenuates Fas-mediated apoptosis in brain ischemia” (Scientific Reports, 2018).
Peptide text beside a SMILES is read from it.

Tests used:
[1] = Brain biodistribution of intranasally inoculated A488-labeled peptide in normal and MCAO rats; format: in vivo, Sprague–Dawley rats; settings: intranasal (POD), MCAO rats; fluorescence imaging
Description: Figure 3 IN delivered FBP localizes to Fas-expressing brain regions in the MCAO rat model of focal ischemia. (A) Immunohistochemistry for Fas expression in ischemic rat brain after MCAO. Representative images of deparaffinized coronal brain sections from normal or ischemic rats stained with anti-Fas antibody at the designated times post-MCAO are shown. Representative images (upper panel) and cumulative data (lower panel) depicting fluorescence intensities measured in arbitrary pixel values relative to that at the 12 h ‘normal’ rats. Scale bar = 50 µm. The data represent mean ± SD (N = 6 per group). *P < 0.05 at individual time-points, Mann-Whitney U test, ^###P < 0.001; Cumulative data, Two-way ANOVA. […] Representative images (upper panel) and cumulative data (lower panel) depicting fluorescence intensities measured in arbitrary pixel values relative to and normalized based on fluorescence intensities in normal group. […]
For bio-distribution studies, A488-conjugated FBP was intranasally (IN) administered at 500 μg (1.4 mg/kg) in a final volume of 50 μL (25 μL in each nare) using the POD at 12 h post-MCAO and fluorescence analyzed at designated time points in isolated organs using Image Station 4000 mm (Carestream Rochester, NY) or by flow cytometry of single cell suspensions on a FACS Calibur™ (BD Bioscience, San Jose, CA) and analyzed using the Flowjo software. […]

[2] = tested on: normal rat brain tissue; assay: H&E and TUNEL staining of brain sections of normal non-ischemic rats after IN inoculation; format: in vivo; settings: H&E and TUNEL stained sections, N = 6 per group
Method: Brain pathology was analyzed by incubating 2 mm thick brain slices in 2% 2,3,5-triphenyltetrazolium chloride (TTC staining, Sigma) and measuring the infarct volume after fixation using Image J software as previously described. Paraffin-embedded brain sections were also subjected to H&E staining and immunohistochemistry after with an antibody to rat Fas (ab82419, Abcam). Apoptosis in de-paraffinized, rehydrated brain sections was analyzed by TUNEL staining using the In Situ Cell Death Detection Kit (Roche, Germany) in accordance with the manufacturer’s instructions.
(A) Regional cerebral blood flow (rCBF) in rat’s subject to MCAO. The cerebral blood flow was measured during ligation of CCA, occlusion of MCA and after reperfusion (N=6 per group) and a 9 fold reduction was considered as a confirmation of ischemic stroke injury. (B) Bio-distribution of IN inoculated ctr-FBP-A488 or FBP-A488 at the indicated time points in normal non-ischemic rats that constitute a control group (N=3 per group). Mock treated animals were inoculated with PBS. (C) Representative hematoxylin and eosin (H&E) (upper panel) and TUNEL (lower panel) stained paraffin embedded sections from normal rat inoculated with PBS (Mock), ctr-FBP or FBP […]
change in tissue morphology and toxicity. Scale bare represents 100µm. ctr-FBP-A488- Alexa488 labeled control peptide, FBP-A488- Alexa488 labeled Fas-blocking peptide.

SMILES	Clearance of peptide from brain after IN delivery [1]	Change in brain tissue morphology and toxicity in normal rats [2]
CC(C)[C@H](NC(=O)[C@@H](NC(=O)[C@H](CO)NC(=O)[C@H](CC(N)=O)NC(=O)[C@H](CS)NC(=O)[C@@H](N)Cc1ccc(O)cc1)[C@@H](C)O)C(=O)N[C@@H](CS)C(=O)N[C@@H](Cc1ccc(O)cc1)C(=O)O [ctr-FBP] (H-YCNSTVCY-OH)	cleared within a few hours of treatment	did not shows any change in tissue morphology and toxicity
N[C@@H](Cc1ccc(O)cc1)C(=O)N[C@@H](CS)C(=O)N[C@@H](CC(=O)O)C(=O)N[C@@H](CCC(=O)O)C(=O)N[C@@H](Cc1c[nH]cn1)C(=O)N[C@@H](Cc1ccccc1)C(=O)N[C@@H](CS)C(=O)N[C@@H](Cc1ccc(O)cc1)C(=O)O [FBP] (H-YCDEHFCY-OH)		did not shows any change in tissue morphology and toxicity
